The values that follow come from the OPERA property sets (Mansouri et al. 2018).

For orientation: logP means a log measure of how a compound divides between an organic and an aqueous phase. A higher logP goes with higher lipophilicity. Broadly, the solubility is the concentration that dissolves in the medium under given conditions. Usually logD stands for the decadic logarithm of the distribution of all forms, ionised or not, between an organic phase and buffer at a given pH.

Structures are written as SMILES. Values after ≈ are worked out from the molar mass of the structure shown.

The compound `O=C(Nc1ccc(Cl)c(Cl)c1)Nc1cc(Cl)ccc1Oc1ccc(Cl)cc1S(=O)(=O)[O-].[Na+]` yielded a logP of 1.89.
Same read-out and setting: for `CCc1nn(C)c(C(=O)NCc2ccc(C(C)(C)C)cc2)c1Cl` the value was 4.61.
Where the note is “25 °C”, `Oc1ccc(Cl)cc1Cc1cc(Cl)ccc1O` yielded a solubility of 111 µM (≈ 30 µg/mL).
For `CC1CCCCC1NC(=O)Nc1ccccc1` (stereo not drawn), the logP is 3.8.
The same measure, in the same setting: to `CON=C(Cc1cccnc1)c1ccc(Cl)cc1Cl` belongs 3.7.
Take `CC(Oc1ccc(Oc2ncc(C(F)(F)F)cc2Cl)cc1)C(=O)O` (stereo not drawn): the solubility (pH 2.6, 25 °C) stood at 120 µM (≈ 43.4 µg/mL).
`O=C(NC(=O)c1c(F)cccc1F)Nc1cc(Cl)c(OC(F)(F)C(F)C(F)(F)F)cc1Cl` (stereo not drawn) showed a logP of 5.12.
For the setting “pH 7.0, 20 °C”, `CCOP(=S)(Oc1cnc(C(C)(C)C)nc1)OC(C)C` (stereo not drawn) yielded a solubility of 17.3 µM (≈ 5.5 µg/mL).
For `N#Cc1nn(-c2c(Cl)cc(C(F)(F)F)cc2Cl)c(N)c1S(=O)C(F)(F)F` (stereo not drawn), the lipophilicity (logP) was determined as 4. The same compound came in with a solubility (20 °C) of 4.35 µM (≈ 1.9 µg/mL).
For the compound `CN=C(O)/C(=N/OC)c1ccccc1Oc1ccccc1`, the logP is 2.32.
Compound `CCc1cccc(C)c1N(COC(C)C)C(=O)CCl` gave a logP of 3.5.
`COC(=O)/C=C(\C)OP(=O)(OC)OC` yielded a logP of 0.13.
As to `O=C1CC(C(=O)O)CC(=O)C1=C(O)C1CC1` (stereo not drawn), the pH-dependent lipophilicity (logD) (pH 2.0) is 1.8. In addition, where the note is “pH 5.0, 20 °C”, the solubility is 5800 µM (≈ 1300 µg/mL).
Compound `CCNc1nc(Cl)nc(NC(C)(C)C)n1` registered a logP of 3.21. The compound also gave a solubility (pH 7.0, 20 °C) of 39.6 µM (≈ 9.09 µg/mL).
`O=C(O)Cn1c(=O)sc2cccc(Cl)c21` yielded a logP of 1.34.
With `CSC(=O)c1cccc2nnsc12`, the logP worked out at 3.1. For the setting “25 °C”, this compound came in with a solubility of 36.6 µM (≈ 7.7 µg/mL).
As to `O=C(NC(=O)c1c(F)cccc1F)Nc1ccc(Cl)c(Oc2ncc(C(F)(F)F)cc2Cl)c1`, the solubility (25 °C) was < 0.0395 µM.
`COP(N)(=O)SC` (stereo not drawn): the logP was -0.8.
Take `CS(=O)(=O)c1cc(C(F)(F)F)ccc1C(=O)c1cnoc1C1CC1`: the lipophilicity (logP) came out at 2.32. For the setting “pH 5.5, 20 °C”, this compound yielded a solubility of 17.3 µM (≈ 6.2 µg/mL).
In turn, `OC(c1ccc(Cl)cc1)(c1ccc(Cl)cc1)C(Cl)(Cl)Cl` came in with a solubility (25 °C) of 2.77 µM (≈ 1.03 µg/mL).
For `O=[n+]1[n-]c(-n2ccnc2)nc2ccc(Cl)cc21`, the logP was 2.04. The solubility (20 °C) was found to be 137 µM (≈ 34 µg/mL).
For `CCCCOC(=O)C1(O)c2ccccc2-c2ccccc21`, the logP was 3.7.
`CC1(C)CCC(=Cc2ccc(Cl)cc2)C1(O)Cn1cncn1` (stereo not drawn) had a lipophilicity (logP) of 3.29.
The same measure, in the same setting: to `COc1cc(OC)nc(N=C(O)NS(=O)(=O)Nc2ccccc2C(=O)C2CC2)n1` belongs 2.05.
`CNC(=O)ON=C(C)C(C)SC` (stereo not drawn) yielded a logP of 1.1. Besides, the solubility (20 °C) was found to be 184000 µM (≈ 35000 µg/mL).
Regarding `O=CNC(N1CCN(C(NC=O)C(Cl)(Cl)Cl)CC1)C(Cl)(Cl)Cl` (stereo not drawn), the logP worked out at 2.2.
As for `CCCOCCN(C(=O)CCl)c1c(CC)cccc1CC`, the lipophilicity (logP) worked out at 4.08. The compound also returned a solubility (20 °C) of 160 µM (≈ 50 µg/mL).
Consider `COc1cccc(C(=O)NN(C(=O)c2cc(C)cc(C)c2)C(C)(C)C)c1C`, for which the lipophilicity (logP) amounted to 3.7 and the solubility was < 2.71 µM.
On to `NC(=O)c1nc(-c2ccccc2)n(-c2ccc(Cl)c(COCC(F)(F)C(F)(F)F)c2)n1`, for which the solubility (pH 7.4, 20 °C) was 2.17 µM (≈ 1 µg/mL).
On to `CC1(C)OC(c2ccco2)CN1C(=O)C(Cl)Cl` (stereo not drawn), for which the logP is 2.12. The solubility (20 °C) turned out to be 708 µM (≈ 197 µg/mL).
The compound `C=C(C)CN(CC)c1c([N+](=O)[O-])cc(C(F)(F)F)cc1[N+](=O)[O-]` displayed a solubility (pH 7.0, 25 °C) of 0.735 µM (≈ 0.245 µg/mL).
With `CCS(=O)(=O)c1cccnc1S(=O)(=O)NC(=O)Nc1nc(OC)cc(OC)n1`, the log distribution coefficient (logD) (pH 5.0) turned out to be 0.29.
For the compound `COc1cc(OC)n2nc(S(=O)(=O)Nc3c(Cl)ccc(C)c3Cl)nc2n1`, the logP was determined as 3.08. The compound also gave a solubility (20 °C) of 478 µM (≈ 200 µg/mL).
Consider `Cc1cc(C2CC2)nc(Nc2ccccc2)n1`, for which the log partition coefficient (logP) amounted to 4.
As for `CC(C)(C)C(O)(CCc1ccc(Cl)cc1)Cn1cncn1` (stereo not drawn), the logP stood at 3.7.
In turn, `CCCCN(CC)c1c([N+](=O)[O-])cc(C(F)(F)F)cc1[N+](=O)[O-]` gave a logP of 5.29. Also, for the setting “25 °C”, the solubility came to 0.298 µM (≈ 0.1 µg/mL).
`COc1cc(OC)nc(Sc2cccc(Cl)c2C(=O)[O-])n1.[Na+]`: the pH-dependent lipophilicity (logD) (pH 5.0) worked out at 0.6.
In turn, `CON=C(C)c1cccc(Oc2nc(OC)cc(OC)n2)c1C(=O)OC` had a lipophilicity (logP) of 2.84. The compound also came in with a solubility (20 °C) of 249 µM (≈ 90 µg/mL).
Regarding `Clc1cccc(C(Cl)(Cl)Cl)n1`, the solubility (25 °C) was found to be 233 µM (≈ 53.7 µg/mL).
On the same count and under the same terms, to `CCOc1ccc(C(C)(C)COCc2cccc(Oc3ccccc3)c2)cc1` belongs < 0.00266 µM.
`O=C(Nc1ccccc1)Nc1ccnc(Cl)c1` displayed a logP of 3.2.
The same measure, in the same setting: for `COC(=O)c1c(C(F)F)nc(C(F)(F)F)c(C2=NCCS2)c1CC(C)C` the value was 3.89; for `COc1cc(OC)nc(NC(=O)NS(=O)(=O)c2ncccc2C(=O)N(C)C)n1`, 0.01; for `CN(C)S(=O)(=O)N(SC(F)(Cl)Cl)c1ccccc1`, 3.7.
Consider `CCS(=O)CCSP(=O)(OC)OC` (stereo not drawn), for which the logP was -0.74.
